{"source": "PubChem BioAssay AID489027", "about": "(Sanford-Burnham Center for Chemical Genomics, 2010)", "note": "pEC50: −log10 of the molar value. The source made the active and inactive calls. No rule for the calls is given here.", "data": [{"target": "UPR counterscreen luciferase reporter, luminescence", "experiment": "luciferase reporter activation, UPR counterscreen line – cell-based, luminescence, counter-screen for adaptive UPR activator project, dose response (AID 489027)", "values": [{"molecule": "CCOC(=O)c1[nH]c2ccc(Cl)cc2c1NC(=O)/C=C/c1ccc2c(c1)OCO2", "EC50": "inactive"}, {"molecule": "O=C(Cc1ccccc1)c1c[nH]c(C(=O)C(Cl)(Cl)Cl)c1", "EC50": "inactive"}, {"molecule": "O=C(Nc1ccc(C(F)(F)F)cc1)c1cc(-c2cccnc2)nc2ccc(Br)cc12", "pEC50": 4.94}, {"molecule": "COc1cccc(-c2sc3ccccc3c2-c2ccc(OCCN(C)C)cc2)c1", "pEC50": 4.90}, {"molecule": "O=C(/C=C/c1ccccc1)NC(NC(=S)Nc1cccc(Cl)c1)C(Cl)(Cl)Cl", "note": "(configuration not stated)", "EC50": "> 80 µM (inactive)"}, {"molecule": "CCOC(=O)c1c(NC(=O)CSc2nnc3c(n2)[nH]c2ccc(F)cc23)sc(C(C)=O)c1C", "pEC50": 4.76}, {"molecule": "CC(C)=CCCC1(C)C=Cc2c(ccc3c2[nH]c2cc(O)c(C)cc23)O1", "note": "(configuration not stated)", "pEC50": 4.71}, {"molecule": "Cc1nc(NC(=O)c2cc3c(C)nn(-c4ccccc4)c3s2)sc1C(=O)Nc1ccccc1", "EC50": "inactive"}, {"molecule": "COc1ccc(-c2nn(-c3ccccc3)cc2/C=N/N2C(=O)CSC2=S)cc1", "EC50": "> 80 µM (inactive)"}, {"molecule": "COc1ccc(-c2nn(C)c(=O)c3ccccc23)cc1NC(=O)Cn1nc(C)c2ccccc2c1=O", "EC50": "> 80 µM (inactive)"}, {"molecule": "O=C(Nc1ccc2nc3n(c(=O)c2c1)CCCCC3)c1ccccc1Cl", "EC50": "> 80 µM (inactive)"}, {"molecule": "CCC[C@@H](CN[C@@H](CNC)[C@H](C)CC)NCC1CCC(C(C)(C)C)CC1", "note": "(some centres not stated)", "pEC50": 5.16}, {"molecule": "CC(=O)Nc1ccccc1Sc1ccc2c3c(cccc13)C(=O)N(c1ccc(C)cc1)C2=O", "EC50": "> 80 µM (inactive)"}, {"molecule": "CC1=C(/C=C/C(C)=C/C=C/C(C)=C/C(=O)Nc2ccc(O)cc2)C(C)(C)CCC1", "pEC50": 5.07}, {"molecule": "Nc1nc(Nc2cccc(F)c2)nc2ccccc12", "EC50": "inactive"}, {"molecule": "CC1(C)C=Cc2c(c3c(c4c(=O)c(-c5ccc(O)cc5)coc24)OC(C)(C)CC3)O1", "pEC50": 4.88}, {"molecule": "CCCCN1C(=O)/C(=C2/Sc3ccc(OC)cc3N2CC)SC1=S", "EC50": "inactive"}, {"molecule": "Oc1ccc(/C=N/Nc2nc(N3CCCC3)nc(N3CCCC3)n2)cc1O", "pEC50": 5.40}, {"molecule": "CCOc1cc(/C=N/N=C(\\N)c2nonc2N)cc(Br)c1OCc1cccc2ccccc12", "EC50": "> 80 µM (inactive)"}, {"molecule": "COc1cccc(-n2c(SCC(=O)N3CCc4ccccc43)nnc2-c2c[nH]c3ccccc23)c1", "EC50": "> 80 µM (inactive)"}, {"molecule": "CC(C)(C)c1csc(NC(=O)c2ccc(Cl)s2)n1", "EC50": "> 80 µM (inactive)"}, {"molecule": "O=C(Nc1cccc(-c2nc3cccnc3s2)c1)C1c2ccccc2Oc2ccccc21", "pEC50": 5.36}, {"molecule": "CCC(=O)Nc1ccc(-c2cc(-c3ccccc3)nc(-c3ccc(NC(=O)CC)cc3)n2)cc1", "EC50": "> 80 µM (inactive)"}, {"molecule": "O=C(CSc1nc2ccc(Nc3nc(N4CCOCC4)nc(N4CCOCC4)n3)cc2s1)Nc1ccccc1F", "EC50": "> 80 µM (inactive)"}, {"molecule": "COc1ccc(-c2csc(NC(=S)NC(=O)/C=C/c3ccco3)n2)cc1Br", "EC50": "inactive"}, {"molecule": "C[C@@H]1C[C@H]2[C@@H]3CCC4=CC(=O)C=C[C@]4(C)[C@@]3(Cl)[C@@H](O)C[C@]2(C)[C@@]1(OC(=O)c1ccco1)C(=O)CCl", "EC50": "> 80 µM (inactive)"}, {"molecule": "CCCCN1C(=O)C(=O)c2cc(Cl)ccc21", "EC50": "inactive"}, {"molecule": "COc1ccc(-c2c/c(=N\\c3nc(-c4ccccc4)c(C)s3)c3ccccc3o2)cc1O", "EC50": "inactive"}, {"molecule": "COc1ccc(CNC(=O)/C(C#N)=C/c2cccc(OC)c2OC)cc1", "EC50": "inactive"}, {"molecule": "O=[N+]([O-])c1ccc(N/N=C/c2cccc(O)c2O)c(S(=O)(=O)N2CCOCC2)c1", "pEC50": 5.13}, {"molecule": "NS(=O)(=O)c1ccc(N/N=C2/CCCCC2C2CCCCC2)c([N+](=O)[O-])c1", "note": "(configuration not stated)", "pEC50": 4.82}, {"molecule": "CCOc1ccccc1-n1c(SCC(=O)Nc2ccc(CC)cc2)nc2n[nH]c(C)c2c1=N", "pEC50": 5.28}, {"molecule": "O=C(CC1C[C@H](C(=O)N2CCCCC2)[C@@]2(CCc3ccccc3)c3[nH]c4ccccc4c3CCN2C1=O)NCCC1=CCCCC1", "note": "(some centres not stated)", "EC50": "inactive"}, {"molecule": "CCOc1ccc(NC(=S)NC(=O)/C=C/c2ccc(OC)c(OC)c2)c([N+](=O)[O-])c1", "EC50": "> 80 µM (inactive)"}, {"molecule": "Cc1ccc(NC(=O)c2c(C)nc3sc(C(=O)NC4CCCC4)c(N)c3c2-c2ccco2)c(C)c1", "EC50": "inactive"}, {"molecule": "Cc1ccc(N=Cc2c(O)n(-c3ccc4c(c3)OCO4)c(=O)c3ccccc23)cc1", "EC50": "> 80 µM (inactive)"}, {"molecule": "CCN(CC)c1ccc(C(=O)OCC(=O)Nc2cc3oc4ccccc4c3cc2OC)cc1", "pEC50": 4.70}, {"molecule": "COC(=O)c1ccc(COc2ccccc2/C=C(\\C#N)C(=O)Nc2c(C)cccc2C)cc1", "pEC50": 4.76}, {"molecule": "COc1ccc(-c2cc(C(F)F)n3ncc(C(=O)N4CCc5ccccc5C4)c3n2)cc1", "EC50": "inactive"}, {"molecule": "C/C(CCC12CC3CC(CC(C3)C1)C2)=N\\NC(N)=S", "EC50": "inactive"}, {"molecule": "CC(C)C(=O)N(c1cc2sc(=O)oc2c2ccccc12)S(=O)(=O)c1cccs1", "pEC50": 4.79}, {"molecule": "Cc1cc(C)c2c(CCl)cc(=O)oc2c1", "pEC50": 4.72}, {"molecule": "C/C(=N\\Nc1ncnc2sc(C)c(C)c12)c1ccccn1", "pEC50": 5.59}, {"molecule": "Cc1sc(NC(=O)c2cc(-c3ccc(Cl)cc3)nc3ccccc23)c(C(N)=O)c1C", "EC50": "> 80 µM (inactive)"}, {"molecule": "COc1cc(-c2noc(C)c2/C=C/c2ccc(OC(C)=O)cc2)cc(OC)c1OC", "EC50": "> 80 µM (inactive)"}, {"molecule": "Cc1ccc2nc(Nc3nc(-c4ccccc4)cc(=O)[nH]3)nc(C)c2c1", "EC50": "> 80 µM (inactive)"}, {"molecule": "Cc1ccc(Cn2c(=O)n(-c3ccccc3)c(=O)c3ccc(C(=O)NCc4ccco4)cc32)cc1", "EC50": "> 80 µM (inactive)"}, {"molecule": "CCOC(=O)c1cc(NC(=O)c2ccc(Cl)cc2)c(=O)n2c1oc1ccc(Cl)cc12", "EC50": "> 80 µM (inactive)"}, {"molecule": "COc1ccc(-c2cc(C(F)F)n3ncc(C(=O)Nc4ccc(C(=O)N5CCOCC5)cc4)c3n2)cc1", "EC50": "> 80 µM (inactive)"}, {"molecule": "COc1ccc(-c2cc(=O)oc3c(C)c(OC(=O)c4cccs4)ccc23)cc1", "EC50": "> 80 µM (inactive)"}, {"molecule": "Nc1nc(-c2cc(O)ccc2[N+](=O)[O-])cc(-c2ccccc2)c1[N+](=O)[O-]", "pEC50": 5.10}, {"molecule": "Cc1c(Cl)cccc1Nc1nc(NCCO)c2ccccc2n1", "pEC50": 4.77}, {"molecule": "c1cc(SC2CCCCC2)cc(-c2nc3cnccn3c2NC2CCCCC2)c1", "pEC50": 4.90}, {"molecule": "COc1ccc(N=Cc2c(O)c3ccccc3oc2=O)cc1", "pEC50": 4.99}, {"molecule": "C[C@H]1[C@H](C)CC[C@]2(C(=O)O)CC[C@]3(C)C(=CC[C@@H]4[C@@]5(C)C[C@@H](O)[C@H](O)C(C)(C)[C@@H]5CC[C@]43C)[C@H]12", "EC50": "> 80 µM (inactive)"}, {"molecule": "C/C(=N/NC(=O)c1ccc(C)s1)c1cccc(NC(=O)COc2ccc(Cl)cc2C)c1", "pEC50": 4.70}, {"molecule": "CCCCCCCCCCOC(=O)Cn1c(COc2ccc(OC)cc2)[n+](C)c2ccccc21", "pEC50": 4.73}, {"molecule": "Oc1cc(-c2ccc(N3CCCCC3)nc2)cc2cccnc12", "EC50": "> 80 µM (inactive)"}, {"molecule": "CCOc1cccc(C(=O)Nc2cccc(-c3nnc(-c4ccc(C)cc4)o3)c2)c1", "pEC50": 4.92}, {"molecule": "CCc1ccc2[nH]c3nc(SCc4nnc(-c5ccc(C)cc5)o4)nnc3c2c1", "EC50": "inactive"}, {"molecule": "O=Cc1cc2ccccc2nc1SCc1ccc(Cl)c(Cl)c1", "EC50": "inactive"}, {"molecule": "CCOc1cc(/C=C2/C(=N)N3C=CSC3=NC2=O)ccc1OCCCOc1ccccc1C", "pEC50": 4.75}, {"molecule": "COc1ccc(-c2nnc(SCC(=O)Nc3sc4c(c3C#N)CCCC4)n2-c2ccccc2)cc1", "pEC50": 4.79}, {"molecule": "CC1C/C(=N/Nc2nc3ccccc3[nH]2)CC(C)(C)C1", "note": "(configuration not stated)", "pEC50": 4.84}, {"molecule": "N#C/C(=C\\c1ccc(N2CCCC2)c([N+](=O)[O-])c1)c1nc2ccccc2[nH]1", "EC50": "> 80 µM (inactive)"}, {"molecule": "O=C(c1ccc2c(c1)[nH]c(=S)n1c3ccccc3nc21)N1CCN(c2cccc(Cl)c2)CC1", "pEC50": 4.79}, {"molecule": "COc1ccc2cc1Oc1ccc(cc1)CC1c3c(cc(OC)c4c3Oc3cc5c(cc3O4)CCNC5C2)CCN1C", "note": "(configuration not stated)", "EC50": "> 80 µM (inactive)"}]}]}
